This is an account of results in the supplement of paper PMC11208160.
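Further: IS621 bridge recombinase in Escherichia coli cells against a fixed T5 target plasmid.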

The nature of this data set: recombinant UMI read abundance after kanamycin selection (control-corrected) (log10(CPM+1)); higher = more efficient recombination; extreme values may be limits of the assay; sequences stand for … in AGTGCAGAGAAAATCGGCCAGTTTTCTCTGCCTGCAGTCCGCATGCCGTGGGACCCCTTGGGTTCTAACCTGTTGCCTAGATTTATGCAGCGGACTGCCTTTCTCCCAAAGTGATAAACCGG…AGGTTGGTTTCACT; site = the 11-nt donor. Put shortly: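 Under IPTG (0.07 mM) plus kanamycin, or without selection, Escherichia coli carrying a UMI-tagged donor and donor-binding-loop pair library and a target plasmid for the IS621 bridge recombinase were plated in two replicates. Recombinant UMIs were PCR-amplified across the donor–target junction and sequenced. Counts were converted to CPM, averaged over replicates, scaled by control-derived factors and reported as log10(CPM+1).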
Take “GAGCTCCCATGGACCGGTTTTCCCGGTAATCCGTATTTGAT (site GAGCTCGCTAT)”: the “recombinant UMI read abundance (log10)” value was determined as 0.
The result for “GAGCTCCCATGGACCGGTTTTCCCGGTAATCCGTATTTGAT (site GAGCTCTCTAT)” reads 2; that for “GAGCTCTCATGGACCGGTTTTCCCGGTAATCCGTATTTGAT (site GAGCTCACTAT)”, 0.0184; that for “GAGCTCTCATGGACCGGTTTTCCCGGTAATCCGTATTTGAT (site GAGCTCCCTAT)”, 1.06.
To “GAGCTCTCATGGACCGGTTTTCCCGGTAATCCGTATTTGAT (site GAGCTCGCTAT)” belongs 0.0051; to “GAGCTCTCATGGACCGGTTTTCCCGGTAATCCGTATTTGAT (site GAGCTCTCTAT)”, 2.58; to “GAGCTTCCATGGACCGGTTTTCCCGGTAATCCGTATTTGTC (site GAGCTTCCTGA)”, 0.576.
“GAGGAATCATGGACCGGTTTTCCCGGTAATCCGTATTTGCG (site AAGGAATCTCG)”: the “recombinant UMI read abundance (log10)” value amounted to 2.23.
Turning to “GAGGAATCATGGACCGGTTTTCCCGGTAATCCGTATTTGCG (site CAGGAATCTCG)”, the “recombinant UMI read abundance (log10)” value worked out at 2.04.
With “GAGGAATCATGGACCGGTTTTCCCGGTAATCCGTATTTGCG (site GAGGAATCTCG)”, the “recombinant UMI read abundance (log10)” value worked out at 2.47.
To “GAGGAATCATGGACCGGTTTTCCCGGTAATCCGTATTTGCG (site TAGGAATCTCG)” belongs 2.25; to “GAGGACGCATGGACCGGTTTTCCCGGTAATCCGTATTTGAG (site GAGGACGCTCT)”, 1.9; to “GAGGAGACATGGACCGGTTTTCCCGGTAATCCGTATTTGCC (site GAGGAGACTGG)”, 1.22.
The result for “GAGGCACCATGGACCGGTTTTCCCGGTAATCCGTATTTGCA (site GAGGCACCTTG)” reads 0.344; that for “GAGGCACCATGGACCGGTTTTCCCGGTAATCCGTATTTGCA (site GCGGCACCTTG)”, 0; that for “GAGGCACCATGGACCGGTTTTCCCGGTAATCCGTATTTGCA (site GGGGCACCTTG)”, 0.
The result for “GAGGCACCATGGACCGGTTTTCCCGGTAATCCGTATTTGCA (site GTGGCACCTTG)” reads 0.
On to “GAGGCCTCATGGACCGGTTTTCCCGGTAATCCGTATTTGAG (site GAGGCCTCTCT)”, for which the “recombinant UMI read abundance (log10)” value came to 1.42.
The result for “GAGGTGGCATGGACCGGTTTTCCCGGTAATCCGTATTTGGC (site GAGGTGGCTGC)” reads 2.13.
The result for “GAGTACGCATGGACCGGTTTTCCCGGTAATCCGTATTTGAT (site GAGTACGCTAT)” reads 1.99; that for “GAGTAGTCATGGACCGGTTTTCCCGGTAATCCGTATTTGGA (site GAGTAGTCTTC)”, 2.7.
The result for “GAGTCAGCATGGACCGGTTTTCCCGGTAATCCGTATTTGCC (site GAGTCAGCTGG)” reads 1.07; that for “GAGTTCACATGGACCGGTTTTCCCGGTAATCCGTATTTGAT (site GAGATCACTAT)”, 0.00366.
Take “GAGTTCACATGGACCGGTTTTCCCGGTAATCCGTATTTGAT (site GAGCTCACTAT)”: the “recombinant UMI read abundance (log10)” value was found to be 0.905.
The result for “GAGTTCACATGGACCGGTTTTCCCGGTAATCCGTATTTGAT (site GAGGTCACTAT)” reads 0; that for “GAGTTCACATGGACCGGTTTTCCCGGTAATCCGTATTTGAT (site GAGTTCACTAT)”, 1.69.
To “GAGTTGTCATGGACCGGTTTTCCCGGTAATCCGTATTTGTT (site GAGTTGTCTAA)” belongs 2.01; to “GATAAACCATGGACCGGTTTTCCCGGTAATCCGTATTTGGT (site GAAAAACCTAC)”, 0.
To “GATAAACCATGGACCGGTTTTCCCGGTAATCCGTATTTGGT (site GACAAACCTAC)” belongs 0; to “GATAAACCATGGACCGGTTTTCCCGGTAATCCGTATTTGGT (site GAGAAACCTAC)”, 0.
As for “GATAAACCATGGACCGGTTTTCCCGGTAATCCGTATTTGGT (site GATAAACCTAC)”, the “recombinant UMI read abundance (log10)” value came out at 0.
The result for “GATAAAGCATGGACCGGTTTTCCCGGTAATCCGTATTTGGG (site GATAAAGCTCC)” reads 0.172; that for “GATACCACATGGACCGGTTTTCCCGGTAATCCGTATTTGCC (site GATACCACTGG)”, 1.33; that for “GATACTGCATGGACCGGTTTTCCCGGTAATCCGTATTTGCC (site GATACTGCTGG)”, 0.895.
Turning to “GATACTGCATGGACCGGTTTTCCCGGTAATCCGTATTTGCC (site GCTACTGCTGG)”, the “recombinant UMI read abundance (log10)” value was determined as 0.748.
To “GATACTGCATGGACCGGTTTTCCCGGTAATCCGTATTTGCC (site GGTACTGCTGG)” belongs 1.73; to “GATACTGCATGGACCGGTTTTCCCGGTAATCCGTATTTGCC (site GTTACTGCTGG)”, 1.4; to “GATAGACCATGGACCGGTTTTCCCGGTAATCCGTATTTGGC (site GATAGACCTGC)”, 0.
The result for “GATAGCACATGGACCGGTTTTCCCGGTAATCCGTATTTGCG (site GATAGCACTCG)” reads 0.578; that for “GATAGGACATGGACCGGTTTTCCCGGTAATCCGTATTTGAC (site GATAGGACTGT)”, 2.34; that for “GATAGGACATGGACCGGTTTTCCCGGTAATCCGTATTTGAC (site GATCGGACTGT)”, 0.114.
To “GATAGGACATGGACCGGTTTTCCCGGTAATCCGTATTTGAC (site GATGGGACTGT)” belongs 0.531; to “GATAGGACATGGACCGGTTTTCCCGGTAATCCGTATTTGAC (site GATTGGACTGT)”, 0.386.
With “GATAGGACATGGACCGGTTTTCCCGGTAATCCGTATTTGTT (site GATAGGACTAA)”, the “recombinant UMI read abundance (log10)” value was determined as 1.43.
The result for “GATCATACATGGACCGGTTTTCCCGGTAATCCGTATTTGCT (site GATCATACTAG)” reads 1.82; that for “GATCCCGCATGGACCGGTTTTCCCGGTAATCCGTATTTGTC (site GATCCCGCTGA)”, 0.846; that for “GATCCGGCATGGACCGGTTTTCCCGGTAATCCGTATTTGAT (site GATCCGGCTAT)”, 0.0999.
To “GATGATCCATGGACCGGTTTTCCCGGTAATCCGTATTTGCT (site GATAATCCTAG)” belongs 0; to “GATGATCCATGGACCGGTTTTCCCGGTAATCCGTATTTGCT (site GATCATCCTAG)”, 0.
The result for “GATGATCCATGGACCGGTTTTCCCGGTAATCCGTATTTGCT (site GATGATCCTAG)” reads 0; that for “GATGATCCATGGACCGGTTTTCCCGGTAATCCGTATTTGCT (site GATTATCCTAG)”, 0.
On to “GATGATTCATGGACCGGTTTTCCCGGTAATCCGTATTTGTT (site GAAGATTCTAA)”, for which the “recombinant UMI read abundance (log10)” value was determined as 0.433.
